Here are results for four compounds from paper PMC5378566, “Design, synthesis and evaluation in an LPS rodent model of neuroinflammation of a novel ^18F-labelled PET tracer targeting P2X7” (EJNMMI Research, 2017).

Data set [1] can be described thus: Stability test in 0.05% DMSO by radio/UV-HPLC. The data set is classed as physicochemical. As to conditions: 37 °C, 2 h. As for the experimental part:
The reaction vessel was heated at 160 °C for 15 min, cooled to 50 °C and the solvent was concentrated at 50 °C under a stream of nitrogen for 7–10 min. Next, the crude mixture was diluted in 2 mL water ensuring <15% acetonitrile was present and injected in an HPLC semi-prep C18 column to provide isolation of the pure product in >99% RCP and >300 GBq/μmol molar radioactivity. The product was diluted to 30–50 mL in water and passed through a light C18 Short Sep-Pak SPE cartridge (WAT023501) for concentration in 200–500 μL ethanol. The resulting product was obtained in high purity and 4.0% overall RCY in 3 h and 30 min from start of synthesis. Purity tests were performed with HPLC method B (Table 1).
Supp. […] UV_A: UV chromatogram; ChA: Channel A (Radiochromatogram); Cps: counts per second.

In another data set the test system is Sprague–Dawley rats. In words: PET/CT imaging and biodistribution in LPS-treated and control rats. The format is in vivo, rat. The procedure: Male Sprague–Dawley rats of 240–270 g were bought from Charles River Laboratories International, Inc., and used within 90 days. The animals were housed with a week of acclimatisation before procedures were done under pathogen-free conditions in a temperature- and humidity-controlled environment and given access to food and water ad libitum. All experiments were carried out in the Rayne Institute, St. Thomas’ Hospital, King’s College London, between 2015 and 2016 and according to the Animals Act 1986 and with the approval of the King’s College research ethics committee.
Twenty-four hours prior to scanning, all rats were pre-treated by an intraperitoneal injection of 0.5 mg/kg LPS from Escherichia coli (0111:B4 L2630, Sigma Aldrich) at 0.5 mg/mL or with 1 mL/kg sterile saline solution and weighed before the start of the PET imaging procedure. Then, the saline-dissolved reformulated radiotracer was injected under isoflurane anaesthesia in 0.2–5 MBq, corresponding to an administered dose of 0.5–16 ng/kg, and >300 GBq/μmol molar radioactivity via tail vein cannulation, followed by a 0.15 mL saline flush. Details on anaesthesia and PET/CT acquisition and analysis are reported in Additional file 1. Immediately after imaging, the animals were culled by terminal anaesthesia and cervical dislocation and dissected. Organs and body fluids were collected for gamma counting (LKB Wallac 1282) and biodistribution analysis.
Data are expressed as mean ± standard error mean (SEM) from three independent replicates, unless otherwise indicated. Statistical analysis of the %ID/g variation in the PET scans and biodistributions were performed with GraphPad Prism 5.0 (San Diego, USA) as a parametric two-way ANOVA test with Bonferroni post-test, while the mean longitudinal percentage injected dose per gram (%ID/g) and the post-LPS treatment weight variation were analysed with a Student’s t test. The asterisk indicates P < 0.01; **P < 0.005; ***P < 0.001. Where unspecified, no significance was found.
PET/CT scans were acquired with Nuclide^TM within the energy window of 400-600 keV, coincidence detection ratio 1-5 and voxel resolution of 0.30 x 0.30 x 0.30 mm^3. CT scanning was performed immediately before or after the PET scans with X-ray energy of 45 KVp, 360 projection and 0.25 x 0.25 x 0.21 mm^3 voxel size. The datasets were resolved by dynamic fine reconstructions with coincidence detection ratio 1-5 and decay correction to the time of injection. Binning was performed in incremental time units of 5 to 30 min size. All reconstructed datasets were analysed with VivoQuant 1.21 (InviCRO, LLC, Boston, USA). ROI activity quantification was corrected for background noise. Uptake was expressed as percent injected dose per gram of tissue (%ID/g), as calculated with reference to the injected activity dose at the time of injection and the ROI size in mm^3. The blood ROI was sampled from the coronary artery. All data are presented as mean ± SEM unless otherwise stated.
Immediately after imaging, the animals were culled by terminal anaesthesia and cervical dislocation. The animals were dissected and organs and body fluids were collected for gamma counting (LKB Wallac 1282) and weighed. An ^18F counts-to-becquerel standard curve was made so as to enable conversion between the two units. The radiotracer uptake in each organ was expressed as %ID/g, where %ID was the percent ratio of the measured organ radioactivity to the total administered dose. The latter was defined as the MBq injected to the animals, decay corrected to the start of counting.

Data set [2] has as its target T1, rat P2X7 (Rattus norvegicus, UniProt Q64663).
T1 construct: expressed in transfected cells
T1 sequence (Q64663 1-595): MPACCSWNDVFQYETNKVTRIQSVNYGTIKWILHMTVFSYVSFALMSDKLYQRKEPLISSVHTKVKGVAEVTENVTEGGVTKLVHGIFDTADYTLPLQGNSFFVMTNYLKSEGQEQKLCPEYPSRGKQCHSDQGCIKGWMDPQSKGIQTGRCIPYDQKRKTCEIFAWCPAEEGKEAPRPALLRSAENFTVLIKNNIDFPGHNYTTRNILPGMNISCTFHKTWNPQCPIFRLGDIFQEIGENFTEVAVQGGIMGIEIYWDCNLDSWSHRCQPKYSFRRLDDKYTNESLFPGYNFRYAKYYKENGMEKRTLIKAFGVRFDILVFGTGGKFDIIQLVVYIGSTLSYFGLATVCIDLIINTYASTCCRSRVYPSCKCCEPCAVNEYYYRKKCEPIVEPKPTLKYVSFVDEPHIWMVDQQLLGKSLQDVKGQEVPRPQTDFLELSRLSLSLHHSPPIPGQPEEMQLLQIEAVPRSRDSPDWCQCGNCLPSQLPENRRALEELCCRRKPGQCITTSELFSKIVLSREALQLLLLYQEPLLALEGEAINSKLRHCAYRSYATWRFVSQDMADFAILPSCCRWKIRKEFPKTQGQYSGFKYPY
In words: Calcium influx (Fura-2/AM) inhibition assay, BzATP-activated. The data set is classed as cell-based. As to conditions: Rat isoform.

For data set [3], the target named is T2, mouse P2X7 (Mus musculus, UniProt Q9Z1M0).
T2 sequence (Q9Z1M0 1-595): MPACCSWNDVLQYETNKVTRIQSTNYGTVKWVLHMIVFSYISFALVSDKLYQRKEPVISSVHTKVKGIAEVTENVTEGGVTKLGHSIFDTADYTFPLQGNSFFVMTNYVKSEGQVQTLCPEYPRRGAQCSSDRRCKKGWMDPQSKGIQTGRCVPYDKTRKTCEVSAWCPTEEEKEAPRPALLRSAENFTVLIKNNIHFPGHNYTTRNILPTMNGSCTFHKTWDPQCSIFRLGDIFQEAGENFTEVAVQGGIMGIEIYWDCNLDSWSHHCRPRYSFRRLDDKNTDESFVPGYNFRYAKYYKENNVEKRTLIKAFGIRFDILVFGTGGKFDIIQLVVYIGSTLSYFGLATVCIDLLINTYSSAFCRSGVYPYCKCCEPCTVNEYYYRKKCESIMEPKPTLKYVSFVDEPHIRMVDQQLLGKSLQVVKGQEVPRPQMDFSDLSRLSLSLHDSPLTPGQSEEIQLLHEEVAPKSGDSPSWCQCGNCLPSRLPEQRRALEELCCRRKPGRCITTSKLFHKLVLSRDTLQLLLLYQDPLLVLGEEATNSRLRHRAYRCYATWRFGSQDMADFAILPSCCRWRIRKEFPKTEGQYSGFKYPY
In words: Calcium influx (Fura-2/AM) inhibition assay, BzATP-activated, B16 cells. The data set is classed as cell-based. The note with it: Mouse isoform; for pKi: Cheng–Prusoff; for Ki: Cheng–Prusoff from pIC50 assuming competitive inhibition, BzATP 200 μM; for pIC50: P2X7-B16, [BzATP] 200 μM.

Data set [4] deals with T3, human P2X7 (Homo sapiens, UniProt Q99572).
T3 construct: expressed in transfected cells
T3 sequence (Q99572 1-595): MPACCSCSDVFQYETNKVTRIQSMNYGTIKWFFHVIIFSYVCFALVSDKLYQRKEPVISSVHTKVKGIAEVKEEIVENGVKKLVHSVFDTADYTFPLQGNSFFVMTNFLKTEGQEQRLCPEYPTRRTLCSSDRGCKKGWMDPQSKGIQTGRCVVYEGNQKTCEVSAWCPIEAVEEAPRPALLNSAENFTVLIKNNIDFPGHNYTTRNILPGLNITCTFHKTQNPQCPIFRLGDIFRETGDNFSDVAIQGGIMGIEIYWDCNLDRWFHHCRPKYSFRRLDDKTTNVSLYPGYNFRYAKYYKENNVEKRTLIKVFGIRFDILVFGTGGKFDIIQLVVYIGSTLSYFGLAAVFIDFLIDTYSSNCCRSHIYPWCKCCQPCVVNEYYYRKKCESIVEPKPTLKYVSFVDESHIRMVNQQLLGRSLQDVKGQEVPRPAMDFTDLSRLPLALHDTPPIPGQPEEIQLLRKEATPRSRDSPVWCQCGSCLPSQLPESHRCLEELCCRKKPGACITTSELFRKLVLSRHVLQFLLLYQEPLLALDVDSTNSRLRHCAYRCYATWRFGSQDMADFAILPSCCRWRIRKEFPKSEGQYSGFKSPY
More on the design: method as in PMID 11181928. The note with it: YoPro dye uptake, P2X7-HEK293; cited from earlier work.

Data set [5] has as its target T1, rat P2X7. More on the design: method as in PMID 11181928. As to conditions: YoPro dye uptake, P2X7-HEK293; cited from earlier work.
In data set [6] the target is T2, mouse P2X7. Further details: method as in PMID 11181928. As to conditions: YoPro dye uptake, P2X7-HEK293; cited from earlier work.
For data set [7], the target named is T3, human P2X7. Kind of data set: Calcium influx (Fura-2/AM) inhibition assay, BzATP-activated. The note with it: Human isoform. The format is cell-based.
In data set [8] the target is T2, mouse P2X7. More on the design: method as in PMID 19558545. The note with it: Mouse isoform, literature value from similar assay format; cited from earlier work.

On to `N#C/N=C(/NCc1ccc([18F])cc1)Nc1cccc2ncccc12` [[^18F]EFB, 2-cyano-1-(4-[^18F]fluorobenzyl)-3-(quinolin-5-yl)guanidine], for which the Stability entry in [1] is recorded as “no radioactive by-product formation”. For the same compound, in the data set on Sprague–Dawley rats (90 min biodistribution), the “blood concentration of the tracer, LPS vs control” value is listed as “substantially unvaried” and the “tracer uptake in upper digestive organs (stomach, pancreas), LPS vs control” value is listed as “increased, albeit non-significant”. Also, in the data set with Sprague–Dawley rats (PET, rats, i.v.), the “CNS uptake, spinal cord” value is 0.05–0.1 %ID/g; the “CNS uptake, whole brain, cortex, olfactory bulb, cerebellum and basal ganglia” value is on record as 0.02–0.07 %ID/g. For the same compound, the “blood concentration (longitudinal uptake profile)” value in the data set with Sprague–Dawley rats (PET, rats, i.v., blood ROI) is listed as 0.05–0.1 %ID/g. Moreover, the “brain uptake (visual PET image assessment)” value in the data set on Sprague–Dawley rats (control and 0.5 mg/kg LPS-pre-treated rats) was “low brain uptake”. The “removal of the radioactivity (excretion route)” value in the data set on Sprague–Dawley rats (rats) is “predominantly via the urinary route”.
As a reminder, the Ki is the equilibrium dissociation constant of an inhibitor or competing ligand from its target. In general, IC50 refers to the concentration at which inhibition is half-maximal. Usually pKi stands for the negative decadic logarithm of the Ki, by convention in mol/L. By pIC50 is commonly meant the negative decadic logarithm of the IC50, by convention in mol/L. Consider `N#CN=C(NCc1ccc(F)cc1)Nc1cccc2ncccc12` [EFB, 2-cyano-1-(4-fluorobenzyl)-3-(quinolin-5-yl)guanidine], for which, on rat P2X7 [2] (Cheng–Prusoff from pIC50 assuming competitive inhibition, BzATP 100 μM), the Ki came out at 0.0361 µM. For the same compound, the half-inhibitory concentration (IC50) at rat P2X7 [2] (P2X7-HEK293, [BzATP] 100 μM) was 7.24 µM. Also, at mouse P2X7 [3], the pKi is listed as 6.26, the Ki was 0.547 µM and the pIC50 is given as 5.22.
One may read the pEC50 as −log10 of the EC50, conventionally taken in molar units. Take “2′(3′)-O-(4-Benzoylbenzoyl)adenosine 5′-triphosphate triethylammonium salt [BzATP]”: the pEC50 on human P2X7 [4] was 6.8 ± 0.14; at rat P2X7 [5], 6.3 ± 0.13; at mouse P2X7 [6], 4.7 ± 0.07.
Regarding `COc1ccc(CC(=O)NC(NC(=NC#N)Nc2cccc3ncccc23)C(C)(C)C)cc1OC` (stereo not shown) [A-740003, N-(1-{[(Cyanoimino)(5-quinolinylamino)methyl]amino}-2,2-dimethylpropyl)-2-(3,4-dimethoxyphenyl)acetamide, reference compound], on human P2X7 [7] (Cheng–Prusoff), the inhibition constant (Ki) was 0.000105 µM. Also, the IC50 on human P2X7 [7] (P2X7-HEK293, [BzATP] 100 μM) was 0.0661 µM. Besides, at mouse P2X7 [3], the pKi is listed as 7.01, the Ki turned out to be 0.0972 µM and the pIC50 was found to be 5.97. Besides, at mouse P2X7 [8], the “Lit. pIC50” value was 6.57 [34].
